Test results: patent publication US7109225B2, “Substituted oxazole derivatives” (Hofmann-la Roche Inc., priority 2002, dated 2006)

Assays:
[1] = biological target: T1, PPARγ (Mus musculus, UniProt P37238); test: Radioligand binding assay (scintillation proximity), GST-PPARγ-LBD fusion protein; design: PPARγ (aa 174 to 476); conditions: radioligand binding (SPA)
T1 sequence (P37238 204-505): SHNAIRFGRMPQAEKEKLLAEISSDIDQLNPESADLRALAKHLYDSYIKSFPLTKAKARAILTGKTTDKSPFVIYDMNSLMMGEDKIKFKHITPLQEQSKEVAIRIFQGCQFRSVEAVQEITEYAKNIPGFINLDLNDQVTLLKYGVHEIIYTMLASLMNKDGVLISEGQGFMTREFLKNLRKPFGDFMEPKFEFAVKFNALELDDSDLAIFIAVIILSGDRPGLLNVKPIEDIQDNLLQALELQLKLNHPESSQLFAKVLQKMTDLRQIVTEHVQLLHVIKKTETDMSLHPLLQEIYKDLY
Excerpt: Background information on the performed assays can be found in: Nichols J S et al. “Development of a scintillation proximity assay for peroxisome proliferator-activated receptor gamma ligand binding domain”, (1998) Anal. Biochem. 257: 112–119.
(§1) Full-length cDNA clones for human PPARα and mouse PPARγ were obtained by RT-PCR from human adipose and mouse liver cRNA, respectively, cloned into plasmid vectors and verified by DNA sequencing. Bacterial and mammalian expression vectors were constructed to produce glutathione-s-transferase (GST) and Gal4 DNA binding domain proteins fused to the ligand binding domains (LBD) of PPARγ (aa 174 to 476) and PPARα (aa 167 to 469). To accomplish this, the portions of the cloned sequences encoding the LBDs were amplified from the full-length clones by PCR and then subcloned into the plasmid vectors. Final clones were verified by DNA sequence analysis.
(§2) Induction, expression, and purification of GST-LBD fusion proteins were performed in E. coli strain BL21 (pLysS) cells by standard methods (Ref: Current Protocols in Molecular Biology, Wiley Press, edited by Ausubel et al.).
(§3) Radioligand Binding Assay
PPARγ receptor binding was assayed in TKE50 (50 mM Tris-HCl, pH 8, 50 mM KCl, 2 mM EDTA, 0.1 mg/ml fatty acid-free BSA and 10 mM DTT). For each 96 well reaction an 140 ng equivalent of GST-PPARγ-LBD fusion protein was bound to 10 ug SPA beads (PharmaciaAmersham) in a final volume of 50 ul by shaking. The resulting slurry was incubated for 1 h at RT and centrifuged for 2 min at 1300 g. The supernatant containing unbound protein was removed and the semidry pellet containig the recptor-coated beads was resolved in 50 ul of TKE. For radioligand binding e.g. 10000 dpm 2(S)-(2-benzoyl-phenylamino)-3-{4-[1,1-ditritio-2-(5-methyl-2-phenyl-oxazol-4-yl)-ethoxy]-phenyl}-propionic acid in 50 ul were added, the reaction incubated at RT for 1 h and scintillation proximity counting performed. All binding assays were performed in 96 well plates and the amount of bound ligand measured on a Packard TopCount using OptiPlates (Packard). Nonspecific binding was determined in the presence of 10^−4 M unlabelled compound. Dose response curves were done in triplicates within a range of concentration from 10^−10 M to 10^−4 M.

[2] = biological target: T2, PPARα (Homo sapiens, UniProt Q07869); test: Luciferase transcriptional reporter gene assay, BHK21 cells transfected with pFA-PPARα-LBD; assay type: cell-based; design: PPARα (aa 167 to 469); expressed in transfected cells; host or cells: BHK21 (ATCC CCL10); conditions: Gal4-PPARα-LBD
T2 sequence (Q07869 167-468 limits assumed): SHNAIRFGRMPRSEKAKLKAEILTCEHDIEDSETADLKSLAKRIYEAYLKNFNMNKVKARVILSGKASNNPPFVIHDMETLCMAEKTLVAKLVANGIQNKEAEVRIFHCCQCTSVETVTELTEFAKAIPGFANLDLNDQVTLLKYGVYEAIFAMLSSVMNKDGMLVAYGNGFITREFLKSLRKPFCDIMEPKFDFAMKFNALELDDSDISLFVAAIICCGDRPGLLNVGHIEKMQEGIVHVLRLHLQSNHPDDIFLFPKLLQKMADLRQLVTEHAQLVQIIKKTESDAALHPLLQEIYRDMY
Excerpt: (§4) Full-length cDNA clones for human PPARα and mouse PPARγ were obtained by RT-PCR from human adipose and mouse liver cRNA, respectively, cloned into plasmid vectors and verified by DNA sequencing. […] To accomplish this, the portions of the cloned sequences encoding the LBDs were amplified from the full-length clones by PCR and then subcloned into the plasmid vectors. Final clones were verified by DNA sequence analysis.
(§5) Luciferase Transcriptional Reporter Gene Assays
(§6) Baby hamster kidney cells (BHK21 ATCC CCL10) were grown in DMEM medium containing 10% FBS at 37° C. in a 95%02:5%CO2 atmosphere. Cells were seeded in 6 well plates at a density of 10^5 Cells/well and then batch-transfected with either the pFA-PPARγ-LBD or pFA-PPARα-LBD expression plasmids plus a reporter plasmid and an expression plasmid encoding the secretable form of alkaline phosphatase (SEAP) as a normalization control. […] Six hours following transfection, the cells were harvested by trypsinization and seeded in 96 well plates at a density of 10^4 cells/well. After 24 hours to allow attachment of cells, the medium was removed and replaced with 100 ul of phenol red-free medium containing the test substances or control ligands (final DMSO concentration: 0.1%). Following incubation of the cells for 24 hours with substances, 50 ul of the supernatant was recovered and analyzed for SEAP activity (Roche Molecular Biochemicals). The remainder of the supernatant was discarded, 50 ul PBS was added per well followed by one volume of Luciferase Constant-Light Reagent (Roche Molecular Biochemicals) to lyse the cells and initiate the luciferase reaction. Luminescence for both SEAP and luciferase was measured in a Packard TopCount. Luciferase activity was normalized to the SEAP control and transcriptional activation in the presence of a test substance was expressed as fold-activation over cells incubated in the absence of the substance. EC50 values were calculated using the XLfit program (ID Business Solutions Ltd. UK).

[3] = biological target: T1, PPARγ; test: Luciferase transcriptional reporter gene assay, BHK21 cells transfected with pFA-PPARγ-LBD; assay type: cell-based; design: PPARγ (aa 174 to 476); expressed in transfected cells; host or cells: BHK21 (ATCC CCL10); conditions: Gal4-PPARγ-LBD
Excerpt: as §1, §5, §6

[4] = biological target: T2, PPARα; test: Radioligand binding assay, GST-PPARα-LBD fusion protein; design: PPARα (aa 167 to 469)
Excerpt: as §4, §2, §3
PPARα receptor binding was assayed in TKE10 (10 mM Tris-HCl, pH 8, 50 mM KCl, 2 mM EDTA, 0.1 mg/ml fatty acid free BSA and 10 mM DTT). […]
PPARγ receptor binding was assayed in TKE50 (50 mM Tris-HCl, pH 8, 50 mM KCl, 2 mM EDTA, 0.1 mg/ml fatty acid-free BSA and 10 mM DTT). […] All binding assays were performed in 96 well plates and the amount of bound ligand measured on a Packard TopCount using OptiPlates (Packard). Nonspecific binding was determined in the presence of 10^−4 M unlabelled compound. […]

| Structure (SMILES) | melting point | IC50 [1] | EC50 [2] | EC50 [3] | IC50 [4] |
| --- | --- | --- | --- | --- | --- |
| Cc1oc(C(C)(C)C)nc1CCOc1ccc(CC(OC(C)C)C(=O)O)c2sccc12 (stereo not shown) [Example 8, 3-{4-[2-(2-tert-Butyl-5-methyl-oxazol-4-yl)-ethoxy]-benzo[b]thiophen-7-yl}-2-isopropoxy-propionic acid] | 159 to 160 °C | 69 nM | 27 nM | 19 nM | – |
| CCCOC(Cc1ccc(OCCc2nc(CC(C)(C)C)oc2C)c2ccccc12)C(=O)O (stereo not shown) [Example 33, 3-(4-{2-[2-(2,2-Dimethyl-propyl)-5-methyl-oxazol-4-yl]-ethoxy}-naphthalen-1-yl)-2-propoxy-propionic acid] | – | 162 nM | 6 nM | 67 nM | – |
| CCCOC(Cc1ccc(OCCc2nc(C3CC3)oc2C)c2ccsc12)C(=O)O (stereo not shown) [Example 31, 3-{4-[2-(2-Cyclopropyl-5-methyl-oxazol-4-yl)-ethoxy]-benzo[b]thiophen-7-yl}-2-propoxy-propionic acid] | 61 to 63 °C | 202 nM | 62 nM | 80 nM | – |
| CCO[C@@H](Cc1ccc(OCCc2nc(C(C)(C)C)oc2C)c2ccccc12)C(=O)O [Example 1, (S)-3-{4-[2-(2-tert-Butyl-5-methyl-oxazol-4-yl)-ethoxy]-naphthalen-1-yl}-2-ethoxy-propionic acid] | 103 to 105 °C | 153 nM | 35 nM | 237 nM | 53 nM |
